Test results taken from BigSolDB 2.1.

Nc1cccnn1
Conditions	solubility (mole fraction)
in acetone, 288.25 K	0.0068
in acetone, 293.15 K	0.00801
in acetone, 298.35 K	0.00907
in acetone, 303.05 K	0.0102
in acetone, 308.35 K	0.012
in acetone, 313.25 K	0.0133
in acetone, 317.85 K	0.0148
in acetone, 323.35 K	0.0169
in acetone, 328.05 K	0.0187
in aniline, 288.05 K	0.0231
in aniline, 293.25 K	0.0289
in aniline, 298.35 K	0.0347
in aniline, 302.95 K	0.0419
in aniline, 308.45 K	0.0487
in aniline, 313.15 K	0.0559
in aniline, 318.15 K	0.0623
in aniline, 323.45 K	0.0693
in aniline, 328.15 K	0.076
in aniline, 333.35 K	0.0825
in ethanol, 288.35 K	0.0193
in ethanol, 294.05 K	0.0213
in ethanol, 298.75 K	0.0237
in ethanol, 303.15 K	0.0266
in ethanol, 308.25 K	0.0306
in ethanol, 313.35 K	0.0349
in ethanol, 318.35 K	0.0409
in ethanol, 323.35 K	0.0492
in ethanol, 328.35 K	0.0602
in ethanol, 333.15 K	0.0713
in ethyl acetate, 288.45 K	0.00228
in ethyl acetate, 293.15 K	0.00275
in ethyl acetate, 298.65 K	0.00324
in ethyl acetate, 302.75 K	0.00383
in ethyl acetate, 307.15 K	0.00434
in ethyl acetate, 312.95 K	0.00522
in ethyl acetate, 318.65 K	0.00588
in ethyl acetate, 322.65 K	0.00665
in ethyl acetate, 328.25 K	0.00738
in ethyl acetate, 332.35 K	0.00813
in isopropanol, 288.15 K	0.0122
in isopropanol, 298.15 K	0.0172
in isopropanol, 303.55 K	0.0203
in isopropanol, 308.45 K	0.0233
in isopropanol, 312.85 K	0.0277
in isopropanol, 317.75 K	0.0315
in isopropanol, 323.25 K	0.0373
in isopropanol, 328.05 K	0.0412
in isopropanol, 332.95 K	0.0465
in methanol, 288.15 K	0.0356
in methanol, 293.05 K	0.0398
in methanol, 298.15 K	0.0455
in methanol, 303.25 K	0.052
in methanol, 308.15 K	0.0596
in methanol, 313.15 K	0.0675
in methanol, 318.25 K	0.076
in methanol, 323.55 K	0.0865
in methanol, 328.15 K	0.0981
in n-butanol, 289.35 K	0.0105
in n-butanol, 293.35 K	0.0126
in n-butanol, 298.05 K	0.017
in n-butanol, 303.15 K	0.0218
in n-butanol, 308.15 K	0.0267
in n-butanol, 313.15 K	0.0324
in n-butanol, 318.05 K	0.0371
in n-butanol, 322.65 K	0.042
in n-butanol, 327.95 K	0.0469
in n-butanol, 332.95 K	0.0519
in n-propanol, 288.45 K	0.0161
in n-propanol, 293.05 K	0.0185
in n-propanol, 298.35 K	0.022
in n-propanol, 302.85 K	0.0255
in n-propanol, 308.15 K	0.0293
in n-propanol, 313.05 K	0.0351
in n-propanol, 318.35 K	0.0401
in n-propanol, 322.95 K	0.0461
in n-propanol, 327.95 K	0.0519
in n-propanol, 333.15 K	0.0602
